Like-named read-outs stand apart in the source and are kept apart here.
Tests used:
[1] = system: GP2D cells; experiment: Cell proliferation assay (CellTiter-Glo), K-Ras G12D cells; type: cell-based; details: read-out: Inhibition of GP2D Cells (IC50)
Procedure, shortened: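 GP2D (K-Ras G12D) cells seeded in DMEM with 2 mM glutamine and 10% FBS, then dosed next day with a dilution series (e.g., 9-point 3-fold). Viability read by CellTiter-Glo luminescence after about 5 days. IC50 from four-parameter fit.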

[2] = system: A549 cells; experiment: Cell proliferation assay (CellTiter-Glo), K-Ras G12S cells; type: cell-based; details: Homo sapiens
Procedure, shortened: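 A549 cells (K-Ras G12S) in RPMI-1640 with 10% FBS, seeded in standard or ultra-low-attachment plates and dosed next day with a 10-point 3-fold series. Viability read about 6 days later by CellTiter-Glo luminescence. IC50 from four-parameter fit.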

[3] = biological target: T1, KRAS protein (His-tagged GDP-loaded G12D 1-169) (Homo sapiens, UniProt P01116, G12D); experiment: Covalent modification of KRAS protein, intact-protein LC-MS; type: binding; details: 24hrs at room temperature, KRAS protein ~2 µM
T1 construct: His-tagged GDP-loaded G12D 1-169
Procedure, shortened: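 His-tagged GDP-loaded KRAS 1-169 (~2 µM) incubated with compound 24 h at room temperature, then quenched with formic acid. Intact-protein LC-ESI-MS on C4 column; deconvoluted peak intensities of unmodified and adducted protein give percent covalent modification.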

Row | SMILES | IC50 ([1]; GP2D cells (K-Ras G12D)) | IC50 ([2]; A549, A549 cells (K-Ras G12S), bin 500 nM to 5 µM, read-out: Inhibition of A549 Cells (IC50)) | % G12D Modification at 24 hr. [3] | IC50 ([1]; GP2d) | IC50 ([2]; A549, read-out: Inhibition of A549 Cells (IC50))
1 | N#Cc1ccn(C(=O)N2C3CCC2CN(c2nc(OC[C@@]45CCCN4C[C@H](F)C5)nc4c(F)c(-c5ccc(F)c6sc(N)c(C#N)c56)c(Cl)cc24)C3)n1 [Compound A224, 1-(3-(7-(2-amino-3-cyano-7-fluorobenzo[b]thiophen-4-yl)-6-chloro-8-fluoro-2-(((2R,7aS)-2-fluorotetrahydro-1H-pyrrolizin-7a(5H)-yl)methoxy)quinazolin-4-yl)-3,8-diazabicyclo[3.2. 1]octane-8-carbonyl)-1H-pyrazole-3-carbonitrile] | ≤ 1000 nM | 500 to 5000 nM | ++ (++ indicates between about 1%- 20% labelling) | – | –
2 | N#Cc1c(N)sc2c(F)ccc(-c3c(Cl)cc4c(N[C@H]5C[C@H]6CC[C@@H](C5)N6C(=O)n5cncn5)nc(OC[C@@]56CCCN5C[C@H](F)C6)nc4c3F)c12 [Compound A257, 4-(4-(((1R,3r,5S)-8-(1H-1,2,4-triazole-1-carbonyl)-8-azabicyclo[3.2.1]octan-3-yl)amino)-6-chloro-8-fluoro-2-(((2R,7aS)-2-fluorotetrahydro-1H-pyrrolizin-7 a(5H)-yl)methoxy)quinazolin-7-yl)-2-amino-7-fluorobenzo[b]thiophene-3-carbonitrile] | – | – | – | 1000 to 10000 nM | 500 to 5000 nM

— patent publication EP4389751A1, “HETEROCYCLIC COMPOUNDS AND USES THEREOF” (Kumquat Biosciences Inc., priority 2021, dated 2024)
